The results in this text go back to patent publication US11529318B2, “Devices and methods for local delivery of tacrolimus” (UNIVERSITY OF PITTSBURGH—OF THE COMMONWEALTH SYSTEM OF …, priority 2017, dated 2022).

The series in a line: Tacrolimus concentration in whole blood (Example 3). It is filed as in vivo, Lewis rats. As to conditions: Lewis, rat, intraperitoneal, 1 mg/kg, read-out: trough tacrolimus blood levels. On the procedure: Quantification of Tacrolimus by LC-Tandem Mass Spectrometry (LC-MS/MS). Fifty microliters of blood containing an unknown concentration of Tacrolimus was added to a conical centrifugation tube, followed by 200 μL of zinc sulfate heptahydrate (ZnSO4.7H2O) to precipitate plasma proteins. Five hundred microliters of an acetonitrile based solution containing a deuterated internal standard (ascomycin) at a concentration of 15 ng/ml was then added, and the mixture was vortexed at 3000 rpm for 2 minutes and centrifugated at 13,000 rpm for 3 minutes and the supernatants collected in LCMS vials for analysis.
Analysis was performed using a fully validated, reverse phased method for the detection of TAC in blood on a Waters micromass Quattro micro API mass spectrometer that is operated in positive electrospray ionization mode, utilizing multiple reaction monitoring, with an injection volume of 20 μL. The Waters 2795 Alliance Separations Module was equipped with a nova-pack® C18 column, 2.1×10 mm cartridge (Waters #186003523) heated to 55° C. Analytes were effectively separated using a gradient elution consisting of an aqueous mobile phase (95% H2O/5% MeOH) and an organic mobile phase (100% MeOH), at a flow rate of 0.6 mL per minute. Mobile phases also contained 0.1% formic acid (CH2O2) and 2 mM ammonium acetate.

Turning to `C=CC[C@@H]1/C=C(\C)C[C@H](C)C[C@H](OC)[C@H]2O[C@@](O)(C(=O)C(=O)N3CCCC[C@H]3C(=O)O[C@H](/C(C)=C/[C@@H]3CC[C@@H](O)[C@H](OC)C3)[C@H](C)[C@@H](O)CC1=O)[C@H](C)C[C@@H]2OC` [tacrolimus], where the note is “24 hours post systemic injection”, the concentration at 24 h is 18.8 ± 14.8 ng/mL. For the same compound, under “14 days, systemically treated animals”, the concentration at 14 days amounted to 14 ± 10.6 ng/mL.
